Measurements reported in paper PMC10287695, “Non-covalent inhibitors of thioredoxin glutathione reductase with schistosomicidal activity in vivo” (Nature Communications, 2023).
Values joined by “and” are separate entries in the source; they are usually repeats but may differ in a detail not shown here. Equal values may be shown once.

Tested on: TGR in newly transformed schistosomula (NTS)
Experiment: TGR inhibition in NTS with TRFS-Green fluorescent probe;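 further: untreated reference is NTS exposed to TRFS-Green probe alone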
Type: cell-based, S. mansoni
Conditions: NTS
Procedure: TGR inhibition in NTS was assessed using a fluorescent probe TRFS-Green (Medchemexpress)[43]. NTS prepared as previously described and cultured in M199 supplemented with 5.5 mM D-glucose, penicillin-streptomycin and 5% heat inactivated fetal bovine serum were incubated at 37 °C in a clear bottom flat well plate in a 5% CO2 incubator overnight. […] NTS were further treated with TRFS-Green (10 µM) for additional 4 h and rinsed with M199 medium to remove residual TRFS-Green. Fluorescence images were obtained using Keyence BZ-X800. The quantification of fluorescence intensity upon the uptake of TRFS-Green by NTS was performed by a fluorescent microplate imager (BioTek Cytation3) (excitation, 438 nm; emission, 538 nm) hourly for 5 h and after 24 h.

Compound	TGR inhibition visualized by TRFS-Green, Average (1hr, 5 µM)	TGR inhibition visualized by TRFS-Green, single replicate (1hr, 5 µM)	TGR inhibition visualized by TRFS-Green, Average (1hr, 15 µM)	TGR inhibition visualized by TRFS-Green, single replicate (1hr, 15 µM)	TGR inhibition visualized by TRFS-Green, Average (1hr, 30 µM)	TGR inhibition visualized by TRFS-Green, single replicate (1hr, 30 µM)	TGR inhibition visualized by TRFS-Green, Average (2hr, 5 µM)	TGR inhibition visualized by TRFS-Green, single replicate (2hr, 5 µM)	TGR inhibition visualized by TRFS-Green, Average (2hr, 15 µM)	TGR inhibition visualized by TRFS-Green, single replicate (2hr, 15 µM)	TGR inhibition visualized by TRFS-Green, Average (2hr, 30 µM)	TGR inhibition visualized by TRFS-Green, single replicate (2hr, 30 µM)	TGR inhibition visualized by TRFS-Green, Average (3hr, 5 µM)	TGR inhibition visualized by TRFS-Green, single replicate (3hr, 5 µM)	TGR inhibition visualized by TRFS-Green, Average (3hr, 15 µM)	TGR inhibition visualized by TRFS-Green, single replicate (3hr, 15 µM)	TGR inhibition visualized by TRFS-Green, Average (3hr, 30 µM)	TGR inhibition visualized by TRFS-Green, single replicate (3hr, 30 µM)	TGR inhibition visualized by TRFS-Green, Average (4hr, 5 µM)	TGR inhibition visualized by TRFS-Green, single replicate (4hr, 5 µM)	other results
Cc1oc(C2CCCCC2)nc1C(=O)N[C@@H]1C[C@@H]2C[C@H]([C@H]1C)C2(C)C [C7 (8VP108)]	12657	12650 and 12664	10865	11062 and 10668	10431.5	10627 and 10236	18963	19690 and 18236	17493	17993 and 16993	16380.5	16170 and 16591	32388.5	32805 and 31972	28933.5	28944 and 28923	28582	28060 and 29104	35273.5	35655 and 34892	TGR inhibition visualized by TRFS-Green, Average (4hr, 15 µM): 29029; TGR inhibition visualized by TRFS-Green, single replicate (4hr, 15 µM): 29202 and 28856; TGR inhibition visualized by TRFS-Green, Average (4hr, 30 µM): 28478.5; TGR inhibition visualized by TRFS-Green, single replicate (4hr, 30 µM): 28833 and 28124; TGR inhibition visualized by TRFS-Green, Average (5hr, 5 µM): 39296; TGR inhibition visualized by TRFS-Green, single replicate (5hr, 5 µM): 39469 and 39123; TGR inhibition visualized by TRFS-Green, Average (5hr, 15 µM): 32855.5; TGR inhibition visualized by TRFS-Green, single replicate (5hr, 15 µM): 32828 and 32883; TGR inhibition visualized by TRFS-Green, Average (5hr, 30 µM): 29603; TGR inhibition visualized by TRFS-Green, single replicate (5hr, 30 µM): 29933 and 29273; TGR inhibition visualized by TRFS-Green, Average (24hr, 5 µM): 44285; TGR inhibition visualized by TRFS-Green, single replicate (24hr, 5 µM): 44288 and 44282; TGR inhibition visualized by TRFS-Green, Average (24hr, 15 µM): 35708; TGR inhibition visualized by TRFS-Green, single replicate (24hr, 15 µM): 35593 and 35823; TGR inhibition visualized by TRFS-Green, Average (24hr, 30 µM): 33705.5; TGR inhibition visualized by TRFS-Green, single replicate (24hr, 30 µM): 33980 and 33431
C[C@@H]1[C@H]2C[C@@H](C[C@H]1NCc1nc3ccccc3n1C1CCCCCC1)C2(C)C [C8 (9VP173)]	11538.5	11535 and 11542	11107.5	11094 and 11121	7413.5	7434 and 7393	18549	18864 and 18234	17855.5	17877 and 17834	9154.5	9096 and 9213	28617	28491 and 28743	26316	26509 and 26123	12119	12004 and 12234	29563.5	29504 and 29623	TGR inhibition visualized by TRFS-Green, Average (4hr, 15 µM): 26307.5; TGR inhibition visualized by TRFS-Green, single replicate (4hr, 15 µM): 26632 and 25983; TGR inhibition visualized by TRFS-Green, Average (4hr, 30 µM): 10530.5; TGR inhibition visualized by TRFS-Green, single replicate (4hr, 30 µM): 10830 and 10231; TGR inhibition visualized by TRFS-Green, Average (5hr, 5 µM): 37986; TGR inhibition visualized by TRFS-Green, single replicate (5hr, 5 µM): 37989 and 37983; TGR inhibition visualized by TRFS-Green, Average (5hr, 15 µM): 27117; TGR inhibition visualized by TRFS-Green, single replicate (5hr, 15 µM): 26702 and 27532; TGR inhibition visualized by TRFS-Green, Average (5hr, 30 µM): 12834; TGR inhibition visualized by TRFS-Green, single replicate (5hr, 30 µM): 12855 and 12813; TGR inhibition visualized by TRFS-Green, Average (24hr, 5 µM): 47666; TGR inhibition visualized by TRFS-Green, single replicate (24hr, 5 µM): 46698 and 48634; TGR inhibition visualized by TRFS-Green, Average (24hr, 15 µM): 29478.5; TGR inhibition visualized by TRFS-Green, single replicate (24hr, 15 µM): 29985 and 28972; TGR inhibition visualized by TRFS-Green, Average (24hr, 30 µM): 14283.5; TGR inhibition visualized by TRFS-Green, single replicate (24hr, 30 µM): 14485 and 14082
C[C@@H]1[C@H]2C[C@@H](C[C@H]1NCc1nc3ccccc3n1C)C2(C)C [C12 (8VP51)]	11939.5	11982 and 11897	10673	10612 and 10734	10618.5	10903 and 10334	23845.5	23846 and 23845	20564.5	20516 and 20613	19325.5	19387 and 19264	33943	33973 and 33913	30062	30013 and 30111	28073.5	28013 and 28134	35461	35481 and 35441	TGR inhibition visualized by TRFS-Green, Average (4hr, 15 µM): 33991.5; TGR inhibition visualized by TRFS-Green, single replicate (4hr, 15 µM): 33999 and 33984; TGR inhibition visualized by TRFS-Green, Average (4hr, 30 µM): 32914; TGR inhibition visualized by TRFS-Green, single replicate (4hr, 30 µM): 32993 and 32835; TGR inhibition visualized by TRFS-Green, Average (5hr, 5 µM): 41567.5; TGR inhibition visualized by TRFS-Green, single replicate (5hr, 5 µM): 41048 and 42087; TGR inhibition visualized by TRFS-Green, Average (5hr, 15 µM): 38445; TGR inhibition visualized by TRFS-Green, single replicate (5hr, 15 µM): 39026 and 37864; TGR inhibition visualized by TRFS-Green, Average (5hr, 30 µM): 33178.5; TGR inhibition visualized by TRFS-Green, single replicate (5hr, 30 µM): 33374 and 32983; TGR inhibition visualized by TRFS-Green, Average (24hr, 5 µM): 78091; TGR inhibition visualized by TRFS-Green, single replicate (24hr, 5 µM): 78082 and 78100; TGR inhibition visualized by TRFS-Green, Average (24hr, 15 µM): 70233; TGR inhibition visualized by TRFS-Green, single replicate (24hr, 15 µM): 70452 and 70014; TGR inhibition visualized by TRFS-Green, Average (24hr, 30 µM): 60492.5; TGR inhibition visualized by TRFS-Green, single replicate (24hr, 30 µM): 60864 and 60121
